The test system of this test is Plasmodium falciparum. Put plainly: Antimalarial activity against chloroquine-resistant, mefloquine-sensitive Plasmodium falciparum W2. The test is classed as functional.

Structures are written as SMILES.

As for `CC1O[C@@H]2O[C@@]3(C)CC[C@H]4[C@H](C)CC[C@@H]1[C@@]24OO3` (stereo partly drawn), the “Log RA” value is on record as -0.64. With `C[C@@H]1CCC2[C@@H](C)COC3OC(C)(C)OO[C@@]32C1` (stereo partly drawn) the figure was -0.8; with `CCO[C@H]1O[C@@H]2O[C@@]3(C)CC[C@H]4C(C)C(F)(F)C[C@@H]([C@H]1C)[C@@]24OO3` (stereo partly drawn), 0.19. With `CCO[C@H]1O[C@@H]2O[C@@]3(C)CC[C@H]4C(C(F)F)CC[C@@H]([C@H]1C)[C@@]24OO3` (stereo partly drawn) the figure was 0.41; with `CCOP(=O)(OCC)OCC[C@@H]1CCC[C@@H]2CC[C@@]3(C)OO[C@]21[C@@H](OC)O3`, 0.37; with `COC(=O)CCOC1O[C@@H]2O[C@@]3(C)CC[C@H]4[C@H](C)CC[C@@H]([C@H]1C)[C@@]24OO3` (stereo partly drawn), 0.1. The figure for `C[C@@H]1CC[C@H]2[C@@H](C)C(=O)N(CC=O)[C@@H]3O[C@@]4(C)CC[C@@H]1[C@@]23OO4` is 1.47; for `CCOC(=O)C[C@H](O[C@H]1O[C@@H]2O[C@@]3(C)CC[C@H]4[C@H](C)CC[C@@H]([C@H]1C)[C@@]24OO3)c1ccc([N+](=O)[O-])cc1` it is 1.57; for `CC[C@H]1CO[C@@H]2O[C@@]3(C)CC[C@H]4[C@H](C)CC[C@@H]1[C@@]24OO3` it is 0.67.

For `C[C@@H]1CC[C@H]2[C@@H](C)C(=O)O[C@@H]3O[C@@]4(C)CC[C@@H]1[C@]32OO4` [ARTEMISININ], the “Log RA” value was 0. `C=C1C(=O)O[C@@H]2O[C@@]3(C)CC[C@H]4[C@H](C)CC[C@@H]1[C@@]24OO3` [ARTEMISITENE]: the “Log RA” value is -0.89. With `C[C@H]1[C@@H](O)O[C@@H]2O[C@@]3(C)CC[C@H]4[C@H](C)CC[C@@H]1[C@@]24OO3` [ARTENIMOL] the figure was 0.55; with `C[C@@H]1CC[C@H]2[C@@H](C)C(=O)O[C@@H]3O[C@@]4(C)CC[C@@H]1[C@]32O4` [DEOXYARTEMISININ], -4.
